Source: patent US20250313530A1, “SMALL MOLECULE INHIBITORS OF INTERLEUKIN-4 AND USES THEREOF” (Trustees of Boston University, priority 2024, published 2025)
Values joined by “and” are separate entries in the source; they are usually repeats but may differ in a detail not shown here. Equal entries are not always repeated. Where two headings read alike, the source gives them in different places.

Assays:
IL-4 [1] = biological target: T1, IL-4 (Homo sapiens, UniProt P05112); experiment: Surface plasmon resonance binding to IL-4
T1 construct: purchased Acros Biosystems IL4-H4218; host or cells: HEK-293
T1 sequence (P05112 25-153): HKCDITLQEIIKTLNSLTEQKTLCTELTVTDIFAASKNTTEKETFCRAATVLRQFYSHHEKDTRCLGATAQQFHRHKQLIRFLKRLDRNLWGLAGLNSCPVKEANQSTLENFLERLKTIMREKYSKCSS
Method: Surface plasmon resonance was performed on a Biacore S200. Series S Sensor chips were purchased from Cytiva. The running buffer was 1×PBS pH 7.40 with 2% DMSO and 0.1% Tween-20 and the flow rate was kept at 50 μL/min. The SA chip was first activated with 120 μL of 1 M NaCl in 50 mM NaOH followed by a wash of 50% Isopropanol in 1 M NaCl and 50 mM NaOH, 200 μl of a 1 mg/ml solution of Avi-tagged IL-4 in DMSO-free buffer was used to immobilize 7073 RU on the chip surface using the BiacoreS200 software, 100 μl of 50 mM Biocytin was used to block all biotin slides on the sensor chip with manual setting. The system was then primed with running buffer for 7 minutes. […] Analog 15 was diluted in the running buffer and injected for 300 seconds cycles, in an ascending order. The dissociation phase was 600 seconds long. Sensorgram figures were created by exporting the raw data and plotting in Graphpad Prism 9.2.0^48.

IL-4 [2] = biological target: T1, IL-4; experiment: HEK-Blue IL-4/IL-13 reporter assay, IL-4 inhibition; format: cell-based; settings: for EC50: dose response, IL-4 inhibition
Method: HEK-Blue IL-4/IL-13 Inhibition assay. HEK-Blue IL-4/IL-13 reporter cell lines were purchased from Invivogen and cultured in DMEM with 10% Heat Inactivated Fetal Bovine Serum (FBS), 100 U/ml-100 μg/ml Pen-Strep, 10 μg/ml blasticidin, 100 μg/ml Normocin and 100 μg/ml Zeocin. Cells were tested for secreted embryonic alkaline phosphatase (SEAP) production induced by IL-4 alone prior to small molecule screening.
22.5 μl of small molecule in DMEM 4% DMSO was added to 22.5 μl of 1 ng/ml IL-4 in DMEM in a non-binding 96-well reaction plate for 30 minutes at room temperature. The reaction plate was further incubated for 30-60 min at 37° C. HEK-Blue IL-4/IL-13 reporter cell line was used between passages 11-17. […] Measurements were done in triplicate. The plate was incubated for ˜22-24 hours at 37° C./5% CO2. Quanti-Blue dye was prepared as per the manufacturer's recommendation and 160 μl was dispensed in each well of a 96-well plate (avoid edges to avoid evaporation), 40 μl of cell supernatant was added to the same plate and incubated for 3 hours at 37° C./5% CO2. Optical density was then measured at 650 nm using Molecular Devices SpectraMax M5 Microplate reader. Data was analyzed and plotted using GraphPad Prism 9.2.0.

[3] = Mouse hepatic microsome stability; format: in vitro ADME; settings: mouse hepatic microsomes
[4] = test system: IL-4 induced STAT-6 phosphorylation in THP-1 monocytes (type II IL-4 receptor); experiment: THP-1 STAT-6 phosphorylation assay (western blot); format: cell-based
Method: THP-1 cells were received as a gift from the laboratory of Dr. Mark Grinstaff and maintained in RMPI-1640 with […] heat-inactivated Fetal Bovine Serum and 50 μM beta-mercaptoethanol. Cells used for assays were between passages 6 and 10, 10 ng/mL IL-4 was preincubated with experimental sample (vehicle or analogs) for 30 minutes at 37° C. 1 mL of each solution was then added to a pellet of 2 E6 THP-1 cells and pipetted up and down. THP-1 cells were incubated for 30 minutes in the incubator at 37 C/5% CO2. Cells were then spun down and lysed with 200 μL ice-cold RIPA buffer complete with phosphatase and protease inhibitors. Cell lysates were incubated on ice for 30 minutes, spun down and the supernatants were stored at −20° C. until western blot analysis. Undiluted cell lysates were run on SDS-PAGE and transferred to Immunoblot PVDF membrane using Biorad equipment. Membranes were incubated with 1:1000 primary antibody overnight at 4° C. Membranes were then incubated with 1:50,000 dilution secondary for 1 hour at room temperature. Membranes were then exposed to Femto ECL for 5 minutes and imaged using a Bio-Rad Gel Doc. The brightness/contrast was adjusted in FIJI and the area under the curve of each lane was quantified. The phosphorylated STAT-6 to STAT-6 ratio was calculated and normalized to the amount of total STAT-6. The data was plotted and analyzed using GraphPad Prism 9.2.0′.

[5] = PAMPA membrane permeability; format: in vitro ADME; settings: 18 hours incubation
Method: PVDF membranes purchased from Bioassay Systems PAMPA-096 were coated with 5 μL of 4% Phosphatidylcholine (Lecithin, MP Biomedicals 0210214780) in dodecane. […] Permeability was calculated by Pv=C×ln (1−ODA/ODE) cm/s, where ODA is the absorbance of acceptor solution minus blank, and ODE the absorbance of the equilibrium standard minus blank, and C=7.72×10^−6 using an 18-hour incubation time.

Mouse plasma stability = format: in vitro ADME
B16-F10 cells = experiment: In vitro cytotoxicity (CellTiter-Glo); format: cell-based; settings: up to 25 μM
Method: CellTiter-Glo 2.0 purchased from Promega G9242) was used to measure cell viability with the Victor-3 plate reader (PerkinElmer) after 24 hours in concentrations of compound up to 25 μM. Vehicle was used as a negative control for both cytotoxicity and growth inhibition, methanol was used as a positive control for cytotoxicity, and 1% FBS was used as a positive control for growth inhibition.

[6] = test system: IL-4 induced pSTAT-6 in THP-1 cells; experiment: THP-1 pSTAT-6 immunofluorescence
Method: IL-4 and analogs or vehicle (DMEM with 2% DMSO) were preincubated for 2 hours at 37° C. After the incubation, IL-4 or IL-4/analogs were incubated with THP-1 cells for 30 min at 37° C./5% CO2. Incubated cells were centrifuged for 5 min at 250×g. After aspirating the supernatant, cells were resuspended in 1×PBS and plated into a MatTek dish coated with Cell Tak adhesive for 30 minutes at room temperature. Cells were fixed with 4% Paraformaldehyde for 1 hour at room temperature. Cells were rinsed twice with 1×PBS and then permeabilized with 0.5% Triton-X for 1 hour at room temperature. Cells were rinsed again with 1×PBS, and blocked for an hour in superblock with 0.05% Tween-20, rinsed twice, and then incubated with anti-pSTAT-6 1:100 diluted in superblock 0.05% Tween-20 overnight at 4° C. (parafilmed to avoid evaporation). Cells were rinsed thrice with 1×PBS and then incubated with Mouse anti-rabbit IgG(H+L) Secondary Antibody-Alexa Fluor 647 for 1 hour at room temperature in the dark. […] Cells were rinsed twice with 1×PBS and left in 1 ml of 1×PBS. Confocal Imaging was done using an Olympus FV10i and images were processed using FIJI.

Human plasma stability = format: in vitro ADME
IL-13 = IL-13 (Homo sapiens, UniProt P35225); experiment: HEK-Blue IL-4/IL-13 reporter assay, IL-13 inhibition; format: cell-based; settings: soluble IL-13 mediated signaling, HEK Blue IL-4/IL-13 reporter assay
Method: Prior to screening. […] The solution was added to preincubated cells in a 96-well culture plate. The supernatant was then incubated with Quanti-Blue dye for 3 hours and absorbance was measured at 650 nm. Data was analyzed and plotted using GraphPad Prism 9.2.0.

Sequence of IL-13 (P35225 25-146): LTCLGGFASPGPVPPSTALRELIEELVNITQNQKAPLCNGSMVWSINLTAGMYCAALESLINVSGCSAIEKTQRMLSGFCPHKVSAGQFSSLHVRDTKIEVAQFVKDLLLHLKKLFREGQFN

With `N#Cc1c(-c2ccc(O)c(O)c2)cc(-c2ccccc2)[nH]c1=N` [Compound 15, 4-(3,4-dihydroxyphenyl)-2-imino-6-phenyl-1,2-dihydropyridine-3-carbonitrile] the kd (IL-4 [1]; SPR kinetic binding constant) was 8.34 e−04 s^−1, the Kd (IL-4 [1]; SPR steady-state affinity analysis) was 31.9 nM and the kon (IL-4 [1]; pH 7.4, read-out: ka) was 26200 M⁻¹ s⁻¹. The inhibition at 10 µM (IL-4 [2]; HEK-Blue, 10 μM, IL-4, HEK Blue IL-4/IL-13 reporter assay) was 95.5%, the EC50 (IL-4 [2]; HEK Blue IL-4/IL-13 reporter assay, read-out: EC50) was 850 nM and 550 nM and the EC50 (IL-4 [2]; values in text, read-out: potency (EC50 of inhibition)) was 552 nM. The Hill coefficient (IL-4 [2]; fit of dose response in HEK Blue IL-4/IL-13 reporter assay) was 1.49±0.15, the “Mouse hepatic microsome stability (% remaining after 1 hour)” value [3] was 30.3% and the EC50 ([4]; Homo sapiens, THP-1 monocytes, western blot, normalized to STAT-6, read-out: EC50 of inhibition of STAT-6 phosphorylation) was 49.6 nM. For the same compound, the STAT-6 levels ([4]; total STAT-6, THP-1 cells) was “not impacted”, the Papp at 18 h, 100 μM [5] was 12.7 ×10⁻⁶ cm/s and the “Mouse plasma stability (% remaining after 3 hours)” value (Mouse plasma stability) was 94.3%. The “Cytotoxicity in B16-F10 cells (24 hours)” value (B16-F10 cells) was “no toxicity”, the “Cytotoxicity in B16-F10 cells (24 hours)” value (B16-F10 cells; listed as Analog 15) was “n.s. < 25 μM” and the “STAT-6 phosphorylation by immunofluorescence” value ([6]; 50 nM) was “reduced STAT-6 phosphorylation”. The “STAT-6 phosphorylation by immunofluorescence” value ([6]; 500 nM) was “complete inhibition of phosphorylation”, the “Human plasma stability (% remaining after 3 hours)” value (Human plasma stability) was 97.4% and the EC50 (IL-13) was 4490 nM.
